Measurements as given in US9624214B2, “Amino-substituted imidazo[1,2-a]pyridinecarboxamides and their use” (BAYER PHARMA AKTIENGESELLSCHAFT, priority 2012, dated 2017).
Structures can show the parent of a compound that is named as a salt.

Molecular target: T1, recombinant guanylate cyclase reporter cell line (Rattus norvegicus, UniProt P19686+P20595)
T1 construct: expressed in transfected cells
T1 sequence (P20595 1-619): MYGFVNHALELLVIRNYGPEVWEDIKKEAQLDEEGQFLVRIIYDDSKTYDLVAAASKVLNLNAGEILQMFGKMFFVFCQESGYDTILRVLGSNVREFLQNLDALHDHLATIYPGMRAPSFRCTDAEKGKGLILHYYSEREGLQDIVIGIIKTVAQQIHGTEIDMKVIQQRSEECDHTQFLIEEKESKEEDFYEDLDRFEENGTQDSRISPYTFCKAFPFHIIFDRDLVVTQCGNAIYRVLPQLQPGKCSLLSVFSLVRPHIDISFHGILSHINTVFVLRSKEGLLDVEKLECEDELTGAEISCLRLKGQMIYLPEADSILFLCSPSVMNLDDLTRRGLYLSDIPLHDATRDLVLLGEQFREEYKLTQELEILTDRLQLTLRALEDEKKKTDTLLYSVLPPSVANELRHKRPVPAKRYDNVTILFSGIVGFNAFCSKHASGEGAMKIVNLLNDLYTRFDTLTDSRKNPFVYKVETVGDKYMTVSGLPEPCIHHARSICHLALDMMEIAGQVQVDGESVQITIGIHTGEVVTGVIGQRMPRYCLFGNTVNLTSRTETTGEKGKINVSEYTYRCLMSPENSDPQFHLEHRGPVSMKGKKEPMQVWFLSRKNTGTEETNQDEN
T1 sequence (P19686 1-690): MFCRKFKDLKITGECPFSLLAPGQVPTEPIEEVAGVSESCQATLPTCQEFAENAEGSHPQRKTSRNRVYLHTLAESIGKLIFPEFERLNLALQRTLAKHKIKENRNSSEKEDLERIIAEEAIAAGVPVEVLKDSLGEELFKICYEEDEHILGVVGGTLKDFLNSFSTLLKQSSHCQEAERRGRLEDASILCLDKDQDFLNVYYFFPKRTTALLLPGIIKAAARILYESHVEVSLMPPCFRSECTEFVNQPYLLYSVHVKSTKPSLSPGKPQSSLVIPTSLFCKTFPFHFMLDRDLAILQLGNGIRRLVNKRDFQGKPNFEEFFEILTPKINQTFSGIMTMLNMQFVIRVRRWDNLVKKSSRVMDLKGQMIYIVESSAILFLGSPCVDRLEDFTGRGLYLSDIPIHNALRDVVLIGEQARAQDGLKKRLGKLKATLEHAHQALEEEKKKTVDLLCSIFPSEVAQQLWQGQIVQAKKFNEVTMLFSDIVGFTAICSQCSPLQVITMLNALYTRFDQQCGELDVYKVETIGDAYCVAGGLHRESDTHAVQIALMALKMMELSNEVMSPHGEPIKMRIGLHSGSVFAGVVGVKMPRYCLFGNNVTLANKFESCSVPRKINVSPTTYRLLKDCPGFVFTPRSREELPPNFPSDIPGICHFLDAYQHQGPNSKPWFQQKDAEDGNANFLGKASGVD
Assay: B-2. Action on recombinant guanylate cyclase reporter cell line
Assay type: cell-based
Conditions: MEC = minimal effective concentration; in some cases mean values from individual determinations
Procedure, shortened: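 Read-out: MEC (minimal effective concentration) in cells. Reporter line carries recombinant sGC. Some values are averages of single runs.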

| SMILES | MEC |
| --- | --- |
| NCC(NC(=O)c1c(C2CC2)nc2c(OCc3c(F)cccc3F)cccn12)c1ccc(F)c(F)c1 (stereo not drawn) [Example 54, ent-N-[2-amino-1-(3,4-difluorophenyl)ethyl]-2-cyclopropyl-8-[(2,6-difluorobenzyl)oxy]-imidazo[1,2-a]pyridine-3-carboxamide] | 1.00 µM |
| Cc1nc2c(OCc3c(F)cccc3F)cc(Cl)cn2c1C(=O)NCC(C)N (single isomer, unassigned; enantiomer b) [Example 30, ent-N-(2-Aminopropyl)-6-chloro-8-[(2,6-difluorobenzyl)oxy]-2-methylimidazo[1,2-a]pyridine-3-carboxamide (Enantiomer B)] | 0.30 µM |
| Cc1nc2c(OCc3c(F)cccc3F)cccn2c1C(=O)NCC(C)CN (single isomer, unassigned) [Example 96, ent-N-(3-Amino-2-methylpropyl)-8-[(2,6-difluorobenzyl)oxy]-2-methylimidazo[1,2-a]pyridine-3-carboxamide Dihydrochloride] | 1.00 µM |
| Cc1nc2c(OCc3c(F)cccc3F)cccn2c1C(=O)NC(CN)c1ccc(F)cc1 (single isomer, unassigned; enantiomer b) [Example 10, ent-N-[2-Amino-1-(4-fluorophenyl)ethyl]-8-[(2,6-difluorobenzyl)oxy]-2-methylimidazo[1,2-a]-pyridine-3-carboxamide (Enantiomer B)] | 0.30 µM |
| CCC(C)(N)CNC(=O)c1c(C)nc2c(OCc3c(F)cccc3F)cc(Cl)cn12 (single isomer, unassigned) [Example 194, ent-N-(2-Amino-2-methylbutyl)-6-chloro-8-[(2,6-difluorobenzyl)oxy]-2-methylimidazo[1,2-a]-pyridine-3-carboxamide] | 0.10 µM |
| Cc1nc2c(OCc3c(F)cccc3F)cccn2c1C(=O)NCCNc1ccc(F)cc1 [Example 79, 8-[(2,6-difluorobenzyl)oxy]-N-{2-[(4-fluoro-phenyl)amino]ethyl}-2-methylimidazo[1,2-a]-pyridine-3-carboxamide] | 1.00 µM |
| Cc1nc2c(OCc3c(F)cccc3F)cccn2c1C(=O)NC(CN)COc1ccc(F)c(F)c1 (stereo not drawn) [Example 124, ent-N-[1-Amino-3-(3,4-difluorophenoxy)propan-2-yl]-8-[(2,6-difluorobenzyl)oxy]-2-methylimidazo[1,2-a]pyridine-3-carboxamide Ditrifluoroacetate] | 1.00 µM |
| Cc1nc2c(OCc3c(F)cccc3F)cc(Cl)cn2c1C(=O)NCC(C)(N)CC(C)C (single isomer, unassigned) [Example 226, ent-N-(2-Amino-2,4-dimethylpentyl)-6-chloro-8-[(2,6-difluorobenzyl)oxy]-2-methylimidazo[1,2-a]pyridine-3-carboxamide] | 0.10 µM |
| Cc1nc2c(OCc3c(F)cccc3F)cccn2c1C(=O)NC(C)[C@H](C)N (single isomer, unassigned) [Example 175] | 1.00 µM |
| Cc1cc(OCc2c(F)cccc2F)c2nc(C)c(C(=O)NC[C@@H]3CCCCN3)n2c1 [Example 172, 8-[(2,6-Difluorobenzyl)oxy]-2,6-dimethyl-N-[(2S)-piperidin-2-ylmethyl]imidazo[1,2-a]pyridine-3-carboxamide] | 0.30 µM |
| Cc1cc(OCc2c(F)cccc2F)c2nc(C)c(C(=O)NCC(C)(N)C(F)(F)F)n2c1 (single isomer, unassigned) [Example 241, ent-N-(2-Amino-3,3,3-trifluoro-2-methylpropyl)-8-[(2,6-difluorobenzyl)oxy]-2,6-dimethylimidazo-[1,2-a]pyridine-3-carboxamide] | 0.30 µM |
| Cc1nc2c(OCc3c(F)cccc3F)cc(C(F)F)cn2c1C(=O)NCC(C)(N)CF (single isomer, unassigned; enantiomer a) [Example 291, ent-N-(2-amino-3-fluoro-2-methylpropyl)-8-[(2,6-difluorobenzyl)oxy]-6-(difluoromethyl)-2-methylimidazo[1,2-a]pyridine-3-carboxamide (Enantiomer A)] | 1.0 µM |
| Cc1nc2c(OCc3c(F)cccc3F)cccn2c1C(=O)NC1CNc2ccccc21 (single isomer, unassigned; ent-8) [Example 47, ent-8-[(2,6-Difluorobenzyl)oxy]-N-(2,3-dihydro-1H-indol-3-yl)-2-methylimidazo[1,2-a]pyridine-3-carboxamide] | 0.30 µM |
| Cc1cc(OCc2c(F)cccc2F)c2nc(C)c(C(=O)NCC(C)(N)C3CC3)n2c1 (single isomer, unassigned; enantiomer a) [Example 260, ent-N-(2-Amino-2-cyclopropylpropyl)-8-[(2,6-difluorobenzyl)oxy]-2,6-dimethylimidazo[1,2-a]-pyridine-3-carboxamide (Enantiomer A)] | 0.10 µM |
| Cc1nc2c(OCc3c(F)cccc3F)cccn2c1C(=O)NC(CN1CCOCC1)c1ccccc1 (single isomer, unassigned; ent-8) [Example 183, ent-8-[(2,6-Difluorobenzyl)oxy]-2-methyl-N-[2-(morpholin-4-yl)-1-phenylethyl]imidazo[1,2-a]-pyridine-3-carboxamide] | 1.00 µM |

Continued, values first:

| MEC | SMILES |
| --- | --- |
| 0.03 µM | CCC(C)(N)CNC(=O)c1c(C)nc2c(OCc3c(F)cccc3F)cc(C)cn12.Cl (single isomer, unassigned; enantiomer a) [Example 357, ent-N-(2-amino-2-methylbutyl)-8-[(2,6-difluorobenzyl)oxy]-2,6-dimethylimidazo[1,2-a]pyridine-3-carboxamide Hydrochloride (Enantiomer A)] |
| 0.10 µM | CCC(C)(N)CNC(=O)c1c(C)nc2c(OCc3c(F)ccc(F)c3F)cc(C)cn12 (single isomer, unassigned; enantiomer a) [Example 300, ent-N-(2-amino-2-methylbutyl)-2,6-dimethyl-8-[(2,3,6-trifluorobenzyl)oxy]imidazo[1,2-a]pyridine-3-carboxamide (Enantiomer A) Hydrochloride] |
| 0.30 µM | CCCC(C)(N)CNC(=O)c1c(C)nc2c(OCc3c(F)ccc(OC)c3F)cc(C)cn12 (stereo not drawn) [Example 364, ent-N-(2-amino-2-methylpentyl)-8-[(2,6-difluoro-3-methoxybenzyl)oxy]-2,6-dimethylimidao[1,2-a]pyridine-3-carboxamide] |
| 0.03 µM | Cc1cc(OCc2c(F)ccc(F)c2F)c2nc(C)c(C(=O)NCC(C)(N)CCC(F)(F)F)n2c1 (single isomer, unassigned; enantiomer b) [Example 411, ent-N-(2-amino-5,5,5-trifluoro-2-methylpentyl)-2,6-dimethyl-8-[(2,3,6-trifluorobenzyl)oxy]imidazo[1,2-a]pyridine-3-carboxamide (Enantiomer B)] |
| 0.10 µM | Cc1cc(OCc2c(F)cccc2F)c2nc(C)c(C(=O)NCC(C)(N)Cc3ccccn3)n2c1 (single isomer, unassigned; enantiomer a) [Example 298, ent-N-[2-amino-2-methyl-3-(pyridin-2-yl)propyl]-8-[(2,6-difluorobenzyl)oxy]-2,6-dimethyl-imidazo[1,2-a]pyridine-3-carboxamide (Enantiomer A)] |
| 1.00 µM | COC(=O)c1cccc(C(N)CNC(=O)c2c(C)nc3c(OCc4c(F)cccc4F)cc(C)cn23)c1 (racemic) [Example 399, rac-Methyl 3-{1-amino-2-[({8-[(2,6-difluorobenzyl)oxy]-2,6-dimethylimidazo[1,2-a]pyridin-3-yl}carbonyl)amino]ethyl}benzoate] |
| 0.30 µM | Cc1cc(OCc2c(F)cccc2F)c2nc(C)c(C(=O)NC(CN)c3cccc(Br)c3)n2c1 (racemic) [Example 383, rac-N-[2-amino-1-(3-bromophenyl)ethyl]-8-[(2,6-difluorobenzyl)oxy]-2,6-dimethylimidazo[1,2-a]pyridine-3-carboxamide] |
| 3.00 µM | Cc1cc(OCc2c(F)cccc2F)c2nc(C)c(C(=O)NCC(N)c3ccc4ncccc4c3)n2c1 (racemic) [Example 372, rac-N-[2-amino-2-(quinolin-6-yl)ethyl]-8-[(2,6-difluorobenzyl)oxy]-2,6-dimethylimidazo[1,2-a]pyridine-3-carboxamide] |
